The record followed here is US11691992B2 (Anacor Pharmaceuticals, Inc., priority 2017, dated 2023).

Assay type in all cases: cell-based
Assay [1] concerns TdTomato-modified T. cruzi (CL strain) in Vero cells. Nature of the assay: In vitro IC50 measurement of T. cruzi amastigote killing using TdTomato-modified T. cruzi (CL strain). The following applies: Trypanosoma cruzi, 72 h, fluorescence, read-out: IC50: I Org. amastigote Growth T. cruzi CL TdTomato, 3 d. Here is the method: Example 112. In Vitro IC50 Measurement of T. cruzi Amastigote Killing Using TdTomato-Modified T. cruzi (CL Strain)
The T. cruzi parasites used in this assay were genetically modified to express Td Tomato fluorescent protein. Vero cells (African green monkey kidney epithelial cells) were harvested from continuous cultures using trypsin and added to the inner 60 wells of 96-well Greiner Bio One plates (plate catalog #655090) at 200 ul/well of […]. Cells were allowed to adhere for 1 h before infection with T. cruzi. T. cruzi for infection were harvested from previously-infected Vero cells, washed, pelleted and resuspended at 5×10^6/mL. 50 uL of parasites were added to each well containing Vero cells. Compounds were prepared from 5 mM stock concentrations in DMSO to final concentrations in wells ranging from 5 uM to 5 nM. Wells were provided for negative controls, lacking compounds. Plates were placed into a 37° C. incubator for 20 min, then a “Day 0” reading was taken on a Synergy H4 plate reader to record initial fluorescence levels, at 544 (excitation) and 612 nm (emission). 96-well plates were placed in Tupperware containers with wet paper towels and incubated at 37° C. incubator for 72 h. After 72 h plates were reread (Day 3 reading) and data analyzed using Excel and/or Graphpad software. Day 0 fluorescence was subtracted from Day 3 to remove input parasite fluorescence. Growth curves are generated and 50% and 90% inhibitory concentrations are determined by nonlinear regression analysis.

Assay [2] has as its system luciferase-expressing L. major parasites developing intracellularly inside RAW 264.7 macrophages. Nature of the assay: Leishmania major intracellular amastigote assay in RAW 264.7 macrophages (luciferase). The note with it: RAW264.7, 96 hours, read-out: IC50: I Org. intracellular amastigote Growth L. major, 4 d. The source says: Example 107. Assay for Leishmania major Intracellular Amastigote Assay in RAW 264.7 Macrophages
The intracellular amastigote assay is a microtiter plate drug sensitivity assay that uses the activity of luciferase as a measure of proliferation of luciferase-expressing L. major parasites developing intracellularly inside RAW 264.7 macrophages in the presence of antileishmanial drugs or experimental compounds. (Buckner, F. S., and A. J. Wilson. Am J Prop Med Hyg, 2005, 72(5): 600-605.) As the activity of luciferase and its associated luminescence after addition of the substrate, luciferin, is relative to parasite growth, a test compound that inhibits the growth of the parasite will result in a lower luminescence. The luciferase-expressing L. major parasite used in this assay is genetically modified by adding the luciferase coding region to the pLEXSY-hyg2 vector (Jena Biosciences). The luciferase expression construct was created by digesting the luciferase coding region (1.66 kbp) of pGL3-Basic (Promega) by using two restriction enzymes, NcoI/EagI, followed by electrophoretic separation of the luciferase coding region on a 1% agarose gel. The luciferase coding region was then ligated into pLEXSY-hyg2 vector (Jena Biosciences) which had previously been digested with NcoI/NotI. The vector was linearized with SwaI and subsequently gel purified prior to transfection into L. major parasites. Transfections were carried out by electroporation at 480V, 13Ω, and 500 μF (0.4 mL of 1×10^8 parasites/mL, and 0.1 mL of 10 μg DNA). Selection for transfectants was then carried out using hygromycin B (100 μg/mL). RAW 264.7 macrophages were cultured in DMEM media (ATCC Cat #30-2002) supplemented with heat-inactivated 10% FBS (Invitrogen Cat #10438-034). To begin the assay, macrophages were harvested from culture by removing all spent media, adding in 10 mL fresh media, scraping cells, and counted using Trypan Blue. The cells were resuspended in DMEM/10% HIFBS media at 2.0×10^5 cells/mL, and then dispensed in a volume of 50 μL to yield a final concentration of 10,000 macrophages/well in 384 well tissue-culture treated sterile white plates (Nunc Cat #12-565-343) using a Tecan EVO Freedom robotics system. The plates were then incubated at 37° C. overnight in 5% CO2 atmosphere for 24 hours. After overnight incubation, the media was removed from each well using the Tecan EVO Freedom robot, and L. major promastigotes were added to each well and allowed to invade the RAW macrophages. Promastigotes were cultured in Schneider's medium (Invitrogen Cat #11720-067) supplemented with 20% heat inactivated FBS. Metacyclic stage promastigotes provide the best invasion for this assay, and cultures should be grown to increase the percentage of metacyclic promastigotes for best results. Promastigotes were harvested from culture, counted, suspended at 2×10^6 promastigotes/mL in DMEM/HIFBS media, and 100,000 promastigotes were dispensed per well in a volume of 50 μL. After overnight incubation, the media was removed from each well using the Tecan Freedom EVO robot, and each well was subsequently washed three times with 40 μF of fresh DMEM/HIFBS medium to remove all extracellular promastigotes. After the third wash, 69.2 μF of DMEM/HIFBS medium was added to each well using the Tecan EVO Freedom robot. Drug plates were prepared with the Tecan EVO Freedom using sterile 96 well plates containing twelve duplicate two-fold serial dilutions of each test compound suspended in DMSO. 7.8 μF of diluted test compound was added to the 69.2 μF of media present in each well providing a 10 fold final dilution of compound. The final concentration range tested was 0.5 to 10,000 ng/ml for all assays. The plates were next incubated at 37° C. and 5% CO2 for 96 hours. After 96 hours of incubation, 7.5 μF of a luciferin solution (Caliper Fife Science) diluted to 150 μg/mF was added to each well, and the plates were incubated for 30 minutes at 37° C., in the dark. […]

The subject of assay [3] is promastigote forms of L. major. The assay is described as follows: Leishmania major promastigote growth inhibition assay (Alamar Blue). The note with it: promastigotes, 44 hours + 4 hours Alamar Blue, read-out: IC50: I Org. promastigote Growth L. major, 2 d. The text has this:
Example 108. Leishmania major Promastigote Growth Inhibition Assay
The promastigote assay is a microtiter plate drug sensitivity prescreen assay used to determine antileishmanial activity of candidate drugs against promastigote forms of L. major. (Shadow et al., PLOS Neglected Tropical Diseases, 2009, e311.) Alamar Blue, or resazurin, is a non-fluorescent indicator dye that is converted to bright red-fluorescent resorufin via the activity of mitochondrial reductases. As the activity of mitochondrial reductases is reduced in cells that are dead or dying, and the intensity of the fluorescence is relative to cell number, a test compound that kills or inhibits growth of a particular target cell, such as L. major, will result in a lower production of fluorescent signal. Pre-dosed microtiter drug plates for use in the promastigote drug prescreen assay were produced using sterile 384-well black optical bottom tissue culture plates (Nunc Cat #12-565-344). Candidate drugs were diluted in dimethyl sulfoxide in four 96-well plates to either 10,000 ng/ml or 1,000 ng/ml, and 4.25 μL of diluted drug was subsequently dispensed into each well of a 384-well plate. Duplicate 384 well plates were made at each test concentration (10,000 ng/mL and 1,000 ng/mL) and amphotericin B was used as a batch control. The Tecan EVO Freedom liquid handling system (Tecan US, Inc., Durham, N.C.) was used to produce all drug assay plates and conduct all pipetting operations for this assay. L. major parasites were cultured in Schneider's medium (Lonza Cat #04-351Q) supplemented with 20% heat inactivated FBS (Invitrogen Cat #16140-089). Promastigotes in early log growth phase were harvested from culture, counted, suspended at 1.32×10^5 cells/mF and 5,000 promastigotes were dispensed into each well of the 384 well plate in a volume of 38.8 μL. The 384 well plates were subsequently incubated at 28° C. for 44 hours. 8.4 μF of Alamar Blue (Promega, Cat #G8081) was added to each well, the plates were subsequently incubated at 28° C. and 5% CO2 for 4 hours and then examined for the relative fluorescence units (RFU) per well using the Tecan Genios Plus (Tecan US, Inc., Durham, N.C.) with excitation set at 560 nm and emission set at 590 nm. The relative fluorescence from each well was used to determine the percent growth inhibition of each candidate compound tested. Compounds with 50% or greater inhibition of growth were selected for further analysis to determine IC50 values.
(Alamar Blue is a resazurin reagent that responds to reducing activity.)

Assay [4] concerns Trypanosoma brucei rhodesiense STIB 900 strain. Nature of the assay: Trypanosoma brucei rhodesiense STIB 900 screening assay. The note with it: 72 h, read-out: Swiss TPH T b rhodesiense IC50. The method, then:
Example 114. Trypanosoma brucei rhodesiense STIB 900 Screening Assay Procedure
The Trypanosoma brucei rhodesiense STIB 900 strain was isolated in 1982 from a human patient in Tanzania and after several mouse passages cloned and adapted to axenic culture conditions (Baltz, et al., EMBO Journal 4: 1273-1277 (1985); Thuita, et al., Acta Tropica 108: 6-10 (2008)). Minimum Essential Medium (50 μL) supplemented with 25 mM HEPES, 1 g/L additional glucose, 1% MEM non-essential amino acids (100×), 0.2 mM 2-mercaptoethanol, 1 mM Na-pyruvate and 15% heat inactivated horse serum was added to each well of a 96-well microtiter plate. Serial drug dilutions of seven 3-fold steps covering a range from 90 to 0.123 μg/mL were prepared. Then 10^4 bloodstream forms of T. b. rhodesiense STIB 900 in 50 μL was added to each well and the plate incubated at 37° C. under a 5% CO2 atmosphere for 72 h. 10 μL Alamar Blue (resazurin, 12.5 mg in 100 mL double-distilled water) was then added to each well and incubation continued for a further 2-4 h (Raz, et al., Acta Tropica 68: 139-47 (1997)). Then the plates were read with a Spectramax Gemini XS microplate fluorometer (Molecular Devices Corporation, Sunnyvale, Calif., USA) using an excitation wavelength of 536 nm and an emission wavelength of 588 nm. Data were transferred into the graphic program Softmax Pro (Molecular Devices), which calculated IC50 values.

Assay [5] concerns bloodstream forms of T. b. rhodesiense STIB 900. Nature of the assay: T. brucei rhodesiense STIB 900 growth inhibition assay. The following applies: Trypanosoma brucei, 72 h, read-out: IC50: I Org. Growth T. brucei rhodesiense STIB 900, 3 d [uM]. The source says: Example 110. T. brucei rhodesiense STIB 900 Growth Inhibition Assay
The parasite strain used in this assay was isolated in 1982 from a human patient in Tanzania and after several mouse passages cloned and adapted to axenic culture conditions, ((a) Baltz, T., D. Baltz, C. Giroud, and J. Crockett. EMBO Journal, 1985, 4:1273-1277. (b) Thuita, J. K., S. M. Karanja, T. Wenzler, R. E. Mdachi, J. M. Ngotho, J. M. Kagira, R. Tidwell, and R. Brun. Acta Tropica 2008, 108:6-10.) Minimum Essential Medium (50 μl) supplemented with 25 mM HEPES, 1 g/l additional glucose, 1% MEM non-essential amino acids (100×), 0.2 mM 2-mercaptoethanol, 1 mM Na-pyruvate and 15% heat inactivated horse serum was added to each well of a 96-well microtiter plate. Serial drug dilutions of seven 3-fold dilution steps covering a range from 90 to 0.123 μg/ml were prepared. Then 10^4 bloodstream forms of T. b. rhodesiense STIB 900 in 50 μl was added to each well and the plate incubated at 37° C. under a 5% CO2 atmosphere for 72 h. 10 μl Alamar Blue (resazurin, 12.5 mg in 100 ml double-distilled water) was then added to each well and incubation continued for a further 2-4 h, (Raz, B., M. Iten, Y. Grether-Buhler, R. Kaminsky, and R. Brun. Acta Trap 1997, 68:139-47.) Then the plates were read with a Spectramax Gemini XS microplate fluorometer (Molecular Devices Cooperation, Sunnyvale, Calif., USA) using an excitation wave length of 536 nm and an emission wave length of 588 nm. Data were analyzed using the microplate reader software Softmax Pro (Molecular Devices Cooperation, Sunnyvale, Calif., USA).

The test system of assay [6] is L. infantum MHOM/MA(BE)/67 amastigotes in primary peritoneal mouse macrophages. The assay is described as follows: Leishmania infantum intracellular amastigote assay in mouse macrophages. The following applies: Macrophage, 120 h, read-out: Inhibition of Organism Growth in Leishmania infantum MHOM/MA/BE/67, 5 d [uM]. The method, then:
Example 111. Leishmania infantum Intracellular Amastigote Assay in Mouse Macrophages
L. infantum MHOM/MA(BE)/67 amastigotes were collected from the spleen of an infected donor hamster and used to infect primary peritoneal mouse macrophages. (Kaiser, M., Maes, L., Tadoori, L. P., Spangenberg, T., Ioset, J.-R. J. Biomol. Screen. 2015 20(5), 634-35.) To determine in vitro antileishmanial activity, 3×10^4 macrophages were seeded in each well of a 96-well plate. Culture medium was RPMI-1640 supplemented with L-glutamine (20 mM), 16.5 mM sodium hydrogen carbonate, and 10% fetal calf serum (FCS). After 2 d of outgrowth, 5×10^5 amastigotes/well were added and incubated for 2 h at 37° C. Prediluted samples to be tested were subsequently added, and the plates were further incubated for 5 d at 37° C. and 5% CO2. Total parasite burdens in the well were microscopically assessed after Giemsa staining and expressed as a percentage of the total burden in the blank controls without compound. In treated wells with high amastigote burdens, an overall estimate of the total burden per well was made without discrimination between the number of infected macrophages and the number of amastigotes per infected cell. In treated wells with low burdens, exact counting was performed. The 50% inhibitory concentrations (IC50s) were then generated for each dose response test using GraphPad Prism (GraphPad Software Inc., San Diego, Calif.) using the nonlinear regression (sigmoidal dose-response/variable slope) equation.

For the compound `Cc1c(C(=O)Nc2ccc3c(c2)B(O)OC32CCC2)nnn1-c1ccccn1` [Example 27, N-(1-hydroxy-1H-spiro[benzo[c][1,2]oxaborole-3,1′-cyclobutan]-6-yl)-5-methyl-1-(pyridin-2-yl)-1H-1,2,3-triazole-4-carboxamide], the results for the IC50 in assay [1], in assay [2] and in assay [3] were < 600 nM, 1100 to 9900 nM and 600 to 2500 nM, respectively.

Take `COc1cccc(-n2cc(C(=O)Nc3ccc4c(c3)B(O)OC4)nn2)n1` [Example 64, N-(1-hydroxy-1,3-dihydrobenzo[c][12]oxaborol-6-yl)-1-(6-methoxypyridine-2-yl)-1H-1,2,3-triazole-4-carboxamide]: the figures for the IC50 in assay [4], in assay [5] and in assay [6] were < 100 nM, 0.1 to 0.3 µM and < 3 µM, respectively.
